# System: G3BP1 NFT2
# Type: binding, human
# Conditions: library DMS-CoV; bait G3BP1 NFT2; prey N; peptide APRITFGGPSDSTGSN; listed as aa = residue placed at this position; column sums to 1
Sequence,"DMS PSSM value, G (position 14)","DMS PSSM value, A (position 1)","DMS PSSM value, R (position 3)","DMS PSSM value, S (position 15)","DMS PSSM value, D (position 11)","DMS PSSM value, T (position 13)","DMS PSSM value, T (position 5)","DMS PSSM value, P (position 9)","DMS PSSM value, S (position 12)","DMS PSSM value, P (position 2)"
APRITFGGPSDSTGSN G14E (APRITFGGPSDSTESN),0.002668,–,–,–,–,–,–,–,–,–
APRITFGGPSDSTGSN A1Q (QPRITFGGPSDSTGSN),–,0.01117,–,–,–,–,–,–,–,–
APRITFGGPSDSTGSN G14K (APRITFGGPSDSTKSN),0.00039,–,–,–,–,–,–,–,–,–
APRITFGGPSDSTGSN R3N (APNITFGGPSDSTGSN),–,–,0.0002259,–,–,–,–,–,–,–
APRITFGGPSDSTGSN S15W (APRITFGGPSDSTGWN),–,–,–,0.00112,–,–,–,–,–,–
APRITFGGPSDSTGSN D11F (APRITFGGPSFSTGSN),–,–,–,–,0.001494,–,–,–,–,–
APRITFGGPSDSTGSN D11I (APRITFGGPSISTGSN),–,–,–,–,0.002718,–,–,–,–,–
APRITFGGPSDSTGSN R3M (APMITFGGPSDSTGSN),–,–,0.03758,–,–,–,–,–,–,–
APRITFGGPSDSTGSN T13Q (APRITFGGPSDSQGSN),–,–,–,–,–,0.01432,–,–,–,–
APRITFGGPSDSTGSN S15Y (APRITFGGPSDSTGYN),–,–,–,0.1419,–,–,–,–,–,–
APRITFGGPSDSTGSN T5L (APRILFGGPSDSTGSN),–,–,–,–,–,–,0.04693,–,–,–
APRITFGGPSDSTGSN P9V (APRITFGGVSDSTGSN),–,–,–,–,–,–,–,0.001999,–,–
APRITFGGPSDSTGSN S12Q (APRITFGGPSDQTGSN),–,–,–,–,–,–,–,–,0.01405,–
APRITFGGPSDSTGSN P2L (ALRITFGGPSDSTGSN),–,–,–,–,–,–,–,–,–,0
APRITFGGPSDSTGSN D11E (APRITFGGPSESTGSN),–,–,–,–,0.08423,–,–,–,–,–
APRITFGGPSDSTGSN T13N (APRITFGGPSDSNGSN),–,–,–,–,–,0.01901,–,–,–,–
APRITFGGPSDSTGSN P2A (AARITFGGPSDSTGSN),–,–,–,–,–,–,–,–,–,0.004798
APRITFGGPSDSTGSN S15P (APRITFGGPSDSTGPN),–,–,–,0.1504,–,–,–,–,–,–
APRITFGGPSDSTGSN R3A (APAITFGGPSDSTGSN),–,–,0.0016,–,–,–,–,–,–,–
APRITFGGPSDSTGSN T13P (APRITFGGPSDSPGSN),–,–,–,–,–,0.005019,–,–,–,–
APRITFGGPSDSTGSN P2T (ATRITFGGPSDSTGSN),–,–,–,–,–,–,–,–,–,0
APRITFGGPSDSTGSN T5Y (APRIYFGGPSDSTGSN),–,–,–,–,–,–,0,–,–,–

Sequence,"DMS PSSM value, G (position 14)","DMS PSSM value, A (position 1)","DMS PSSM value, R (position 3)","DMS PSSM value, S (position 15)","DMS PSSM value, D (position 11)","DMS PSSM value, T (position 13)","DMS PSSM value, T (position 5)","DMS PSSM value, P (position 9)","DMS PSSM value, S (position 12)","DMS PSSM value, P (position 2)"
APRITFGGPSDSTGSN D11G (APRITFGGPSGSTGSN),–,–,–,–,0,–,–,–,–,–
APRITFGGPSDSTGSN T5G (APRIGFGGPSDSTGSN),–,–,–,–,–,–,0,–,–,–
APRITFGGPSDSTGSN R3V (APVITFGGPSDSTGSN),–,–,0.00164,–,–,–,–,–,–,–
APRITFGGPSDSTGSN G14M (APRITFGGPSDSTMSN),0.3018,–,–,–,–,–,–,–,–,–
APRITFGGPSDSTGSN A1H (HPRITFGGPSDSTGSN),–,0.001405,–,–,–,–,–,–,–,–
APRITFGGPSDSTGSN R3G (APGITFGGPSDSTGSN),–,–,0.02417,–,–,–,–,–,–,–
APRITFGGPSDSTGSN S12V (APRITFGGPSDVTGSN),–,–,–,–,–,–,–,–,0.04482,–
APRITFGGPSDSTGSN D11L (APRITFGGPSLSTGSN),–,–,–,–,0.001888,–,–,–,–,–
APRITFGGPSDSTGSN T13H (APRITFGGPSDSHGSN),–,–,–,–,–,0.0006139,–,–,–,–
APRITFGGPSDSTGSN G14F (APRITFGGPSDSTFSN),0.04037,–,–,–,–,–,–,–,–,–
APRITFGGPSDSTGSN T13R (APRITFGGPSDSRGSN),–,–,–,–,–,0,–,–,–,–
APRITFGGPSDSTGSN S15D (APRITFGGPSDSTGDN),–,–,–,0.002282,–,–,–,–,–,–
APRITFGGPSDSTGSN P2D (ADRITFGGPSDSTGSN),–,–,–,–,–,–,–,–,–,0.06205
APRITFGGPSDSTGSN R3T (APTITFGGPSDSTGSN),–,–,0.001362,–,–,–,–,–,–,–
APRITFGGPSDSTGSN R3E (APEITFGGPSDSTGSN),–,–,0.01584,–,–,–,–,–,–,–
APRITFGGPSDSTGSN S15Q (APRITFGGPSDSTGQN),–,–,–,0.01454,–,–,–,–,–,–
APRITFGGPSDSTGSN S15K (APRITFGGPSDSTGKN),–,–,–,0.0001786,–,–,–,–,–,–
APRITFGGPSDSTGSN P9F (APRITFGGFSDSTGSN),–,–,–,–,–,–,–,0.2349,–,–
APRITFGGPSDSTGSN A1D (DPRITFGGPSDSTGSN),–,0.5313,–,–,–,–,–,–,–,–
APRITFGGPSDSTGSN R3S (APSITFGGPSDSTGSN),–,–,0.004779,–,–,–,–,–,–,–
APRITFGGPSDSTGSN S15V (APRITFGGPSDSTGVN),–,–,–,0.03856,–,–,–,–,–,–

# Same assay, conditions: library DMS-CoV; bait G3BP1 NFT2; prey N; peptide APRITFGGPSDSTGSN; listed as aa = residue placed at this position; column sums to 1
Sequence,"DMS PSSM value, S (position 10)","DMS PSSM value, F (position 6)","DMS PSSM value, G (position 7)","DMS PSSM value, G (position 8)"
APRITFGGPSDSTGSN S10Q (APRITFGGPQDSTGSN),0.008177,–,–,–
APRITFGGPSDSTGSN F6P (APRITPGGPSDSTGSN),–,0,–,–
APRITFGGPSDSTGSN G7W (APRITFWGPSDSTGSN),–,–,0,–
APRITFGGPSDSTGSN G8A (APRITFGAPSDSTGSN),–,–,–,0.9067
APRITFGGPSDSTGSN G8E (APRITFGEPSDSTGSN),–,–,–,0.0007374
APRITFGGPSDSTGSN G7I (APRITFIGPSDSTGSN),–,–,0,–

# Same assay, conditions: library DMS-CoV; bait G3BP1 NFT2; prey N; peptide RNAPRITFGGPSDSTG; listed as aa = residue placed at this position; column sums to 1
Sequence,"DMS PSSM value, N (position 2)","DMS PSSM value, R (position 5)","DMS PSSM value, G (position 10)","DMS PSSM value, A (position 3)","DMS PSSM value, D (position 13)","DMS PSSM value, I (position 6)","DMS PSSM value, G (position 16)","DMS PSSM value, T (position 15)","DMS PSSM value, T (position 7)","DMS PSSM value, G (position 9)"
RNAPRITFGGPSDSTG N2H (RHAPRITFGGPSDSTG),0,–,–,–,–,–,–,–,–,–
RNAPRITFGGPSDSTG R5I (RNAPIITFGGPSDSTG),–,0.009613,–,–,–,–,–,–,–,–
RNAPRITFGGPSDSTG R5N (RNAPNITFGGPSDSTG),–,0,–,–,–,–,–,–,–,–
RNAPRITFGGPSDSTG R5H (RNAPHITFGGPSDSTG),–,0.001007,–,–,–,–,–,–,–,–
RNAPRITFGGPSDSTG G10A (RNAPRITFGAPSDSTG),–,–,1,–,–,–,–,–,–,–
RNAPRITFGGPSDSTG A3G (RNGPRITFGGPSDSTG),–,–,–,0.6104,–,–,–,–,–,–
RNAPRITFGGPSDSTG D13M (RNAPRITFGGPSMSTG),–,–,–,–,0,–,–,–,–,–
RNAPRITFGGPSDSTG I6W (RNAPRWTFGGPSDSTG),–,–,–,–,–,0,–,–,–,–
RNAPRITFGGPSDSTG G16K (RNAPRITFGGPSDSTK),–,–,–,–,–,–,0,–,–,–
RNAPRITFGGPSDSTG T15K (RNAPRITFGGPSDSKG),–,–,–,–,–,–,–,0,–,–
RNAPRITFGGPSDSTG T7M (RNAPRIMFGGPSDSTG),–,–,–,–,–,–,–,–,0,–
RNAPRITFGGPSDSTG T7G (RNAPRIGFGGPSDSTG),–,–,–,–,–,–,–,–,0,–
RNAPRITFGGPSDSTG G16V (RNAPRITFGGPSDSTV),–,–,–,–,–,–,0,–,–,–
RNAPRITFGGPSDSTG T7Q (RNAPRIQFGGPSDSTG),–,–,–,–,–,–,–,–,0,–
RNAPRITFGGPSDSTG T7Y (RNAPRIYFGGPSDSTG),–,–,–,–,–,–,–,–,0,–
RNAPRITFGGPSDSTG G16P (RNAPRITFGGPSDSTP),–,–,–,–,–,–,0,–,–,–
RNAPRITFGGPSDSTG G9W (RNAPRITFWGPSDSTG),–,–,–,–,–,–,–,–,–,0
RNAPRITFGGPSDSTG I6E (RNAPRETFGGPSDSTG),–,–,–,–,–,0,–,–,–,–

Sequence,"DMS PSSM value, N (position 2)","DMS PSSM value, R (position 5)","DMS PSSM value, G (position 10)","DMS PSSM value, A (position 3)","DMS PSSM value, D (position 13)","DMS PSSM value, I (position 6)","DMS PSSM value, G (position 16)","DMS PSSM value, T (position 15)","DMS PSSM value, T (position 7)","DMS PSSM value, G (position 9)"
RNAPRITFGGPSDSTG R5Q (RNAPQITFGGPSDSTG),–,0.0005824,–,–,–,–,–,–,–,–
RNAPRITFGGPSDSTG G16D (RNAPRITFGGPSDSTD),–,–,–,–,–,–,0,–,–,–
RNAPRITFGGPSDSTG T15S (RNAPRITFGGPSDSSG),–,–,–,–,–,–,–,0,–,–
RNAPRITFGGPSDSTG A3S (RNSPRITFGGPSDSTG),–,–,–,0,–,–,–,–,–,–
RNAPRITFGGPSDSTG G16E (RNAPRITFGGPSDSTE),–,–,–,–,–,–,0,–,–,–
RNAPRITFGGPSDSTG G10M (RNAPRITFGMPSDSTG),–,–,0,–,–,–,–,–,–,–
RNAPRITFGGPSDSTG G16H (RNAPRITFGGPSDSTH),–,–,–,–,–,–,0,–,–,–
RNAPRITFGGPSDSTG T15F (RNAPRITFGGPSDSFG),–,–,–,–,–,–,–,0,–,–
RNAPRITFGGPSDSTG A3I (RNIPRITFGGPSDSTG),–,–,–,0,–,–,–,–,–,–
RNAPRITFGGPSDSTG G16L (RNAPRITFGGPSDSTL),–,–,–,–,–,–,0,–,–,–
RNAPRITFGGPSDSTG T15W (RNAPRITFGGPSDSWG),–,–,–,–,–,–,–,0,–,–
RNAPRITFGGPSDSTG R5E (RNAPEITFGGPSDSTG),–,0.1354,–,–,–,–,–,–,–,–
RNAPRITFGGPSDSTG T7H (RNAPRIHFGGPSDSTG),–,–,–,–,–,–,–,–,0,–
RNAPRITFGGPSDSTG T7K (RNAPRIKFGGPSDSTG),–,–,–,–,–,–,–,–,0,–
RNAPRITFGGPSDSTG T15I (RNAPRITFGGPSDSIG),–,–,–,–,–,–,–,1,–,–
RNAPRITFGGPSDSTG I6L (RNAPRLTFGGPSDSTG),–,–,–,–,–,0.232,–,–,–,–
RNAPRITFGGPSDSTG R5P (RNAPPITFGGPSDSTG),–,0.5972,–,–,–,–,–,–,–,–
RNAPRITFGGPSDSTG A3E (RNEPRITFGGPSDSTG),–,–,–,0.2371,–,–,–,–,–,–

# Same assay, conditions: library DMS-CoV; bait G3BP1 NFT2; prey N; peptide RNAPRITFGGPSDSTG; listed as aa = residue placed at this position; column sums to 1
Sequence,"DMS PSSM value, P (position 4)","DMS PSSM value, S (position 14)","DMS PSSM value, F (position 8)","DMS PSSM value, S (position 12)"
RNAPRITFGGPSDSTG P4E (RNAERITFGGPSDSTG),0.9115,–,–,–
RNAPRITFGGPSDSTG P4G (RNAGRITFGGPSDSTG),0,–,–,–
RNAPRITFGGPSDSTG S14W (RNAPRITFGGPSDWTG),–,0,–,–
RNAPRITFGGPSDSTG F8R (RNAPRITRGGPSDSTG),–,–,0,–
RNAPRITFGGPSDSTG S12F (RNAPRITFGGPFDSTG),–,–,–,0
